This is an account of results in patent publication US20040102454A1, “Phenylahistin and the phenylahistin analogs, a new class of anti-tumor compounds” (priority 1998, published 2004).

Data set [1] can be described thus: Solubility of phenylahistin in solvents. It counts as physicochemical.
Data set [2] has as its system P388 leukemia cells. Kind of data set: In vivo antitumor activity against P388 leukemia. Details: species or system mice. As for the experimental part:
Male CDF1 mice (4 weeks old) were inoculated intraperitoneally with P388 leukemia cells (1×10^6 cells/body) on day 0. […] Each group consisted of six mice. A T/C (%) was calculated according to the following formula:
T/C (%)=[(mean number of survival days of treated group)/(mean number of survival days of control group)]×100

For data set [3], the system named is P388 murine leukemia cells. Kind of data set: Cytotoxic effects of the phenylahistin enantiomers (Example 8). The data set is classed as cell-based. The conditions noted are these: Mus musculus, (−) 92.2% e.e., (+) 97.8% e.e. The text has this: The cytotoxic effects of the enantiomers of phenylahistin on P388 murine leukemia cells were examined. […] Judging from the content of (−)-phenylahistin in (+)-phenylahistin, (+)-phenylahistin was considered to have relatively low cytotoxicity to P388 cells.

The test system of data set [4] is P388 cells. Description: P388 proliferation, Alamar Blue assay. The data set is classed as cell-based, murine. As to conditions: for IC50: Mus musculus.
Data set [5] has as its system P388 cells. Kind of data set: Cell cycle progression of P388, flow cytometer. It counts as cell-based, murine. As to conditions: 1×10^−6 M, 8-hour incubation. As for the experimental part: The effect of phenylahistin on the cell cycle progression of P388 cells was also investigated using a flow cytometer, as described in Krishan, A., J. Cell Biol. (1975) 66, 188-193. P388 cells in the log growth phase were seeded into flasks and cultured for 14 hours, and then various concentrations of phenylahistin were added to each flask. After an 8-hour incubation, the cells were harvested and fixed with 50% MeOH at −20° C. overnight. The cells were washed with 30% MeOH and then with 10 mM PBS, and treated with 50 :g/ml propidium iodide at 4° C. for 2 hours. DNA histograms were obtained using a flow cytometer (Cyto ACE-300:JASCO).
In general terms: Flow cytometry measures light scatter and fluorescence of single cells or particles in a stream.

Data set [6] concerns A549 cells. Kind of data set: Mitotic index. The data set is classed as cell-based, human. As for the experimental part: Exponentially growing A549 cells were seeded into 96-well tissue culture plates (2×10^3 cells/100:1/well) and cultured for 16 hours. (−)-PLH or CLC was then added to each well at various concentrations, and the plates were incubated for an additional 24 hours. The number of cells in mitosis (round cells) and total cells in eight randomly selected fields were counted under a phase-contrast microscope. In a series of preliminary studies, it was confirmed that the round cells in this condition were cells in mitosis by using flow cytometry and Hoechst 33258 staining. The mitotic index represented the percentage of round cells among the total number of cells in the eight selected fields.

The test system of data set [7] is microtubules in A549 cells. Kind of data set: Immunofluorescence staining of microtubules. It counts as cell-based, human. As to conditions: 6 hours incubation. The protocol:
Immunocytochemical staining was performed using the method described by Yahara, I. et al., Cell (1978) 15, 251-259. A549 cells were cultured on glass coverslips and incubated with the test drug for 6 hours. The cells were then fixed with 3.7% formaldehyde for 30 min, permeabilized with 0.2% Triton X-100 for 5 min, and incubated with a mouse monoclonal antibody against α-tubulin (Calbiochem®, Oncogene Research Products, Cambridge, Mass.), followed by incubation with fluorescein isothiocyanate-conjugated goat anti-mouse IgG from Cosmo Bio Co., (Tokyo, Japan), and the cells were examined under an immunofluorescent microscope.

In data set [8] the target is bovine brain tubulin. Kind of data set: [^3H]CLC binding to tubulin and competition assay. The conditions noted are these: Dixon plot, assuming competitive inhibition; 0.5 μM [^3H]CLC; read-out: estimated Ki value for CLC binding. As for the experimental part:
[^3H]CLC binding to tubulin was evaluated by the ultrafiltration method of Takahashi, M., et al., Biochim. Biophys. […] The concentration of unbound [^3H]CLC in the filtrates was determined using a EcoLite™(+) liquid scintillator from ICN Pharmaceuticals Inc. (Costa Mesa, Calif.). Specific bound [^3H]CLC concentrations were determined by adding an excess (×100) of unlabeled CLC to the reaction mixture.
For the competition assay, bovine brain tubulin (0.2 mg/ml) was incubated in the microtubule assembly buffer with 0.5 μM [^3H]CLC and various concentrations of competitors for 20 min at 37° C. [^3H]CLC binding was measured as described above.

Data set [9] deals with C. glabrata. Kind of data set: Antifungal susceptibility testing, broth dilution (NCCLS M38-A). It counts as cell-based, Candida glabrata. As to conditions: Nakaseomyces glabratus; C. glabrata; 80% reduction in turbidity; read-out: MIC. As for the experimental part:
(§1) Antifungal susceptibility testing was accomplished according to the methods outlined in the National Committee for Clinical Laboratory Standards, M38-A “Reference Method for Broth Dilution Antifungal Susceptibility Testing of Conidium-Forming Filamentous Fungi; Approved Standard.” This includes testing in RPMI-1640 with glutamine and without bicarbonate, an inoculum size of 0.4-5×10^4, and incubation at 30 or 35° C. for 48 hours. […] Drug concentrations were 0.03-16 μg/ml for the investigational compounds, 0.015-8 μg/ml for itraconazole and griseofulvin.
(§2) The minimum lethal concentration (MLC) was determined by plating […] from the MIC concentration and each concentration above the MIC. […] When a MIC was obtained, a minimum fungicidal concentration (MFC) was determined to assess the fungistatic/fungicidal nature of the compound. […] The compound is scored as fungistatic if the cells are able to resume growth and fungicidal if no regrowth is possible because the compound had killed the organisms.
A general note: Broth dilution looks for growth in wells or tubes with falling amounts of substance.

The test system of data set [10] is A. fumigatus isolate #1. Described as above. It counts as cell-based. As to conditions: Aspergillus fumigatus, 80% reduction in turbidity. As for the experimental part:
as §1, §2

Data set [11] has as its system A. fumigatus isolate #2. The data set is described as above. The data set is classed as cell-based. As to conditions: Aspergillus fumigatus, 80% reduction in turbidity. The protocol:
as §1, §2

Setting [12] is: 4.2 mg/kg (1 mg/kg calculated (−)-PLH) i.p. daily days 1 to 12.
Setting [13] is: 12.5 mg/kg (3 mg/kg calculated (−)-PLH) i.p. daily days 1 to 12.
Where [14] appears, read: 42 mg/kg (10 mg/kg calculated (−)-PLH) i.p. daily days 1 to 12.
Setting [15] is: 125 mg/kg (30 mg/kg calculated (−)-PLH) i.p. daily days 1 to 12.

Molecules are shown by their SMILES. Like-named read-outs stand apart in the source and are kept apart here. Where only a bound is given, the exact number is not on record here.

Usually T/C stands for the ratio of treated to control. In the case of `C=CC(C)(C)c1[nH]cnc1/C=C1\NC(=O)[C@H](Cc2ccccc2)NC1=O` (racemic) [PLH, phenylahistin], the solubility entry in data set [1] (in ethyl acetate, chloroform, methanol, and pyridine) is “soluble”; in data set [1] (in water, benzene, and toluene), “only slightly soluble”. Moreover, the “Mean Body weight on day 12” value is 25.3 ± 0.4 g in [2] (setting [12]), 24.1 ± 0.6 g in data set [2] (setting [13]), 23.0 ± 0.5 g in data set [2] (setting [14]) and 22.3 ± 0.3 g in data set [2] (setting [15]). Further, the “Mean Number of Survival days” value in data set [2] (setting [12]) is 14.6 ± 0.6 days; in data set [2] (setting [13]) it was 14.6 ± 0.5 days; in [2] (setting [14]), 16.1 ± 0.8 days; in [2] (setting [15]), 18.9 ± 0.9 days. The “T/C (%)” value in data set [2] (setting [12]) was 117%; in data set [2] (setting [13]), 117%; in data set [2] (setting [14]), 129%; in data set [2] (setting [15]) it was 151%. Further, in data set [2] (daily administrations of PLH 41.5 and 124 mg/kg), the “increases in body weight seen in the control group” value is “suppressed”. Also, the T/C was 129% in data set [2] (daily dosage of 41.5 mg/kg for 12 days); 151% in data set [2] (daily dosage of 124 (30) mg/kg for 12 days); 115% in data set [2] (single administration, 415 mg/kg PLH [(−)-PLH 100 mg/kg]). In addition, in [2] (highest dose (124 mg/kg/day)), the tremorgenic side effects result is recorded as “did not induce such side effects”.

The term Ki denotes the equilibrium dissociation constant of an inhibitor or competing ligand from its target. The term MIC denotes the smallest concentration in the dilution series that meets the test's criterion for growth inhibition. `C=CC(C)(C)c1[nH]cnc1/C=C1\NC(=O)[C@H](Cc2ccccc2)NC1=O` [(−)-phenylahistin]: the IC50 stood at 0.35 µM in [3]; 0.21 µM in [4] (P388, read-out: IC50 P388 proliferation); 0.21 µM in data set [4] (P388, read-out: IC50 for P388 Proliferation). Further, the “times more active than (+)-phenylahistin in anti-proliferative assays” value in data set [4] is 50 times. In addition, in [4] (P388), the “times less active than colchicine, anti-proliferative activity” value is on record as “about 10 times”. In addition, the “cell cycle inhibitory activity (G2/M)” value in data set [5] is on record as “exhibited cell cycle inhibitory activity”; in data set [5] (listed as (−)-PLH), “completely inhibits the cell cycle progression”. The mitotic index entry in [6] (24 hours) was “increased”. Besides, in data set [6] (after washing and replacement with fresh medium), the “reversibility of the anti-mitotic effect” value is “reversible”. In addition, the “microtubule structure (anti α-tubulin staining)” value in data set [7] is given as “disappearance of the microtubule network”. Also, the inhibitory constant (Ki) in data set [8] was 7.4 µM. Moreover, the figures for the MIC in data set [9], in data set [10] and in [11] were greater than 70 µg/mL, greater than 16 µg/mL and greater than 16 µg/mL, respectively.
